Assays:
MHC Class II = experiment: Splenocyte cell surface density/distribution (FACS): MHC Class II; type: in vivo, mouse (Balb/c female)
Method: (§1) One group of 4 unstimulated Balb/c female mice is injected with PBS (Group A). Another (Group B) is injected with 20 μg (±) methyl 11α,16-dihydroxy-16-methyl-9-oxoprosta-5Z,13E-dien-1-oate as in Example 13. […] A 3 cm incision is made with a scalpel above the left hip, and the spleen is cut free from adjoining tissue and placed in a 100 mn plastic culture dish containing 10 ml PBS. The splenic cells are then made into a suspension, by rubbing the spleens between the rough, frosted ends of microscope slides repeatedly until the only remaining particulate matter is connective tissue. Cells are transferred to a 15 ml conical polystyrene tube and centrifuged in a centrifuge at 1200 rpm for 5 minutes. The supernatant is discarded by aspiration and the cell pellet is resuspended in 10 ml PBS, then centrifuged at 1200 rpm for 5 minutes. The supernatant is aspirated and the cell pellet is resuspended in 15 mM Tris, 140 mM Ammonium Chloride, to lyse red blood cells. After incubating at room temperature for 10 minutes the cell suspension is centrifuged at 1200 rpm for 10 minutes. The supernatant is discarded and the cell pellet is resuspended in 10 ml FACS Buffer (PBS containing 0.1% BSA and 0.1% Sodium Azide). The cell suspension is filtered through sterile glass wool plugged in the top of a pasteur pipet. Cells in the flow through are counted using a hemacytometer, then the cell suspension is centrifuged at 1200 rpm for 5 minutes. The supernatant is discarded and the cell pellet is resuspended in a volume of FACS Buffer that will yield 4×10^7 cells/ml. 10 μl (4×10^5 cells) is added to each well of a 96-well V-bottom plate. 25 μl of diluted monoclonal antibody directed against splenocyte cell surface proteins is added to each well: Major Histocompatability Complex (MHC) Class II (M5114, ATCC, Rockville Md.), MHC Class I (M1/42, ATCC), Anti-IgD (JA12.5, ATCC, Rockville, Md.), Thymocyte (Thy)-1 (JIJ, ATCC), B220 (14.8, ATCC), Kappa light chain (187, ATCC), IL-2 Receptor (7D4, ATCC), Lyt-1 (7.313, ATCC) and CD23 (biotinylated B3B4) and incubated on ice for 30 minutes. 100 μl 10% BSA 0.1% sodium azide is added to each well, then the plates are centrifuged at 1200 rpm for 10 minutes. The liquid is removed by aspiration and the cell pellets are resuspended in 100 μl FACS Buffer, and centrifuged at 1200 rpm for 5 minutes. […] Samples are transferred to individual tubes and 10,000 cells are analyzed. Using the Lysis software (Becton Dickinson, Mountain View, Calif.) the mean channel log fluorescence and percent positive cells are determined for the entire cell population. […]

κ Light Chain = experiment: Splenocyte cell surface density/distribution (FACS): κ Light Chain; type: in vivo, mouse (Balb/c female)
Method: as §1

Structure (SMILES): CCCCC(C)(O)C/C=C/[C@H]1[C@H](O)CC(=O)[C@@H]1C/C=C\CCCC(=O)OC (mixture of isomers) [(±) methyl 11α,16-dihydroxy-16-methyl-9-oxoprosta-5Z,13E-dien-1-oate]
- Percentage Positive Cells (MHC Class II; anti-IgD stimulated mice, 20 μg days 3 and 4, day 7 (PBS 59.8)): 68.6 ± 5.1%
- Mean Channel Log Fluorescence (MHC Class II; anti-IgD stimulated mice, 20 μg days 3 and 4, day 7 (PBS 134)): 137 ± 15
- Percentage Positive Cells (MHC Class II; unstimulated mice, 20 μg (PBS 56.2)): 56.9 ± .4%
- Mean Channel Log Fluorescence (MHC Class II; unstimulated mice, 20 μg (PBS 148)): 149 ± 8
- Percentage Positive Cells (κ Light Chain; anti-IgD stimulated mice, 20 μg days 3 and 4, day 7 (PBS 50)): 58 ± 14.6%
- Mean Channel Log Fluorescence (κ Light Chain; anti-IgD stimulated mice, 20 μg days 3 and 4, day 7 (PBS 118)): 119 ± 7
- Percentage Positive Cells (κ Light Chain; unstimulated mice, 20 μg (PBS 52.1)): 53.9 ± 2.1%
- Mean Channel Log Fluorescence (κ Light Chain; unstimulated mice, 20 μg (PBS 135)): 131 ± 4

— patent publication US5157052A, “Method for inhibiting IgE production” (priority 1990, dated 1992)
